Where “and” joins values, the source holds several entries; their conditions need not be identical. Equal values may be shown once. Read-outs that look alike come from different tables or passages of the source.
Experiments:
[1] = tested on: mesophilic lactic acid bacteria Strain 9; test: Acidification activity of bulk starter cultures with yeast extract, iron, manganese and/or molybdate, Strain 9; format: cell-based; conditions: YE 0.02 wt %, Fe, Mn, Mo 8 ppm each
Method: (§1) The strains were fermented in sterilized production medium in a standard fermentation vessel. The fermentation was carried out by maintaining the pH between 6-6.5 with ammonia at a temperature of about 30° C. The culture was harvested after ammonia consumption was stabilized. The culture was cooled to a temperature of below 10° C. and centrifuged. A concentration factor (harvested broth over pellet volume) of 15-20 was obtained. The obtained concentrate was used for further testing, e.g. with the cell concentrates a series of bulk starter culture fermentations was performed. […] The bulk starter culture was prepared by fermenting the milk during 6 hours at 30° C. under pH-stat conditions. Ammonia was used to maintain the pH at 6.0-6.2. Samples (1.5 ml) of the cultures were taken after 5 and 6 hours fermentation. The samples were tested to establish the acidification activity of the culture under standard conditions. […] The strains were fermented as described in Example 6. The bulk starter cultures were prepared as described in Example 6 with the proviso that the UHT milk was inoculated with 0.6 wt % cell concentrate. Acid production was measured as described in Example 6 with the proviso that 6 gram sample was taken from the cultures after 5 and 6 hours and added to 200 g UHT milk. The experiment was done with two different strains.

[2] = tested on: mesophilic lactic acid bacteria Strain 8; test: Acidification activity of bulk starter cultures with yeast extract, iron, manganese and/or molybdate, Strain 8; format: cell-based; conditions: YE 0.02 wt %, Fe, Mn, Mo 8 ppm each
Method: as §1

[3] = tested on: mesophilic lactic acid bacteria Strain 3; conditions: 31° C.
Method: (§2) One litre of 2%-fat UHT milk was added to a previously sterilized 1200 ml fermentor vessel. Suspensions of yeast extract formulated with either iron pyrophosphate or iron sulfate were sterilized separately and added to the vessel to supply the milk with 0.02 wt % yeast extract and iron at a final amount of 2.4, 4.2 or 6 ppm.
(§3) Vessels were heated to 31° C., inoculated with freshly thawed culture concentrates and incubated for 7 hours under pH-control (pH between 5.9 and 6.1). After the incubation, the obtained starter culture was immediately cooled to a temperature below 8° C.
(§4) The obtained starter culture was tested for acidification activity by inoculating cold 2%-fat UHT-pasteurised milk with 3.0% (v/v) of the culture, incubating the inoculated milk for 2.5 hours at 31° C., and then measuring the change in pH of the milk versus non-inoculated milk. The experiment was done for five different mesophilic lactic acid bacteria strains.

[4] = tested on: mesophilic lactic acid bacteria Strain 4; conditions: 31° C.
Method: as §2, §3, §4

[5] = tested on: mesophilic lactic acid bacteria Strain 5; conditions: 31° C.
Method: as §2, §3, §4

strain 6 = test: Acidification activity of strain 6 bulk starter cultures at different iron and manganese concentrations; format: cell-based, mesophilic lactic acid bacteria
Method: The strains were fermented in sterilized production medium in a standard fermentation vessel. The fermentation was carried out by maintaining the pH between 6-6.5 with ammonia at a temperature of about 30° C. The culture was harvested after ammonia consumption was stabilized. The culture was cooled to a temperature of below 10° C. and centrifuged. A concentration factor (harvested broth over pellet volume) of 15-20 was obtained. The obtained concentrate was used for further testing, e.g. with the cell concentrates a series of bulk starter culture fermentations was performed. […] The bulk starter culture was prepared by fermenting the milk during 6 hours at 30° C. under pH-stat conditions. Ammonia was used to maintain the pH at 6.0-6.2. Samples (1.5 ml) of the cultures were taken after 5 and 6 hours fermentation. The samples were tested to establish the acidification activity of the culture under standard conditions. […] Several different final iron and manganese concentrations were used in this experiment. The bulk starter culture was prepared as described above with the proviso that the UHT milk was inoculated with 0.6 wt % cell concentrate.

[6] = tested on: mesophilic lactic acid bacteria Strain 2; conditions: 31° C., in the absence of iron 1.44
Method: as §2, §3, §4

[7] = tested on: mesophilic lactic acid bacteria Strain 1; conditions: 31° C., in the absence of iron 1.18
Method: as §2, §3, §4

[8] = Strain 3, 2.4 ppm iron + 0.02 wt % yeast extract
[9] = Strain 3, 4.2 ppm iron + 0.02 wt % yeast extract
[10] = Strain 3, 6.0 ppm iron + 0.02 wt % yeast extract
[11] = Strain 4, 2.4 ppm iron + 0.02 wt % yeast extract
[12] = Strain 4, 4.2 ppm iron + 0.02 wt % yeast extract
[13] = Strain 4, 6.0 ppm iron + 0.02 wt % yeast extract
[14] = Strain 5, 2.4 ppm iron + 0.02 wt % yeast extract
[15] = Strain 5, 4.2 ppm iron + 0.02 wt % yeast extract
[16] = Strain 5, 6.0 ppm iron + 0.02 wt % yeast extract

Compound	Acidification activity of bulk starter culture ([1]; Strain 9, 5 hours, no addition 0.33)	Acidification activity of bulk starter culture ([1]; Strain 9, 6 hours, no addition 0.43)	Acidification activity of bulk starter culture ([2]; Strain 8, 5 hours, no addition 0.64)	Acidification activity of bulk starter culture ([2]; Strain 8, 6 hours, no addition 1.08)	Acidification activity [3, 8]	Acidification activity [3, 9]	Acidification activity [3, 10]	Acidification activity [4, 11]	Acidification activity [4, 12]	Acidification activity [4, 13]	Acidification activity [5, 14]	Acidification activity [5, 15]	Acidification activity [5, 16]	Acidification activity of bulk starter culture (strain 6; strain 6, Fe 0 ppm, Mn 2.4 ppm, 7 hours, 0/0 ppm 1.61)	Acidification activity ([6]; Strain 2, 2.4 ppm iron + 0.02 wt % yeast extract)	Acidification activity ([6]; Strain 2, 6.0 ppm iron + 0.02 wt % yeast extract)	Acidification activity ([7]; Strain 1, 2.4 ppm iron + 0.02 wt % yeast extract)	Acidification activity ([7]; Strain 1, 6.0 ppm iron + 0.02 wt % yeast extract)	Acidification activity of bulk starter culture (strain 6)
[Na+].[Na+].[O]=[Mo](=[O])([O-])[O-] [Mo, sodium molybdate]	0.55 ΔpH/2.5 h	0.79 ΔpH/2.5 h	0.73 ΔpH/2.5 h	1.04 ΔpH/2.5 h	–	–	–	–	–	–	–	–	–	–	–	–	–	–	–
O=P([O-])([O-])OP(=O)([O-])[O-].O=P([O-])([O-])OP(=O)([O-])[O-].O=P([O-])([O-])OP(=O)([O-])[O-].[Fe+3].[Fe+3].[Fe+3].[Fe+3] [Iron pyrophosphate, iron pyrophosphate]	–	–	–	–	1.45 ΔpH/2.5 h	1.48 ΔpH/2.5 h	1.50 ΔpH/2.5 h	1.48 ΔpH/2.5 h	1.56 ΔpH/2.5 h	1.58 ΔpH/2.5 h	1.25 ΔpH/2.5 h	1.32 ΔpH/2.5 h	1.33 ΔpH/2.5 h	–	–	–	–	–	–
O=S(=O)([O-])[O-].[Mn+2] [M, manganese sulphate]	–	–	–	–	–	–	–	–	–	–	–	–	–	1.65 ΔpH/2.5 h	–	–	–	–	–
O=S(=O)([O-])[O-].[Fe+2] [Iron sulphate, iron sulphate]	–	–	–	–	1.49 ΔpH/2.5 h	1.49 ΔpH/2.5 h	1.51 ΔpH/2.5 h	1.54 ΔpH/2.5 h	1.56 ΔpH/2.5 h	1.57 ΔpH/2.5 h	1.29 ΔpH/2.5 h	1.33 ΔpH/2.5 h	1.35 ΔpH/2.5 h	–	1.77 ΔpH/2.5 h	1.71 ΔpH/2.5 h	1.47 ΔpH/2.5 h	1.53 ΔpH/2.5 h	1.67 ΔpH/2.5 h and 1.66 ΔpH/2.5 h
